In ChEMBL document CHEMBL5346973 (J Med Chem, 2023):
Calls of active or inactive are those of the source. The calls are words filed in the database; no cut-off is given here. Where a SMILES comes first, the peptide text is derived from it.

What was measured:
[1] = target: Nicotinic acetylcholine receptor alpha9/alpha10 (Rattus norvegicus, UniProt P43144+Q9JLB5); experiment: Antagonist activity at rat alpha9alpha10 nACh receptor expressed in Xenopus oocyte assessed as inhibition of acetylcholine-induced response at -70 mV holding potential by voltage-clamp based electrophysiological assay; format: cell-based
[2] = Stability of the compound in human serum assessed as compound remaining after 6 hr by UPLC analysis; format: ADME, cell-free
[3] = target: Neuronal acetylcholine receptor subunit alpha-7 (Rattus norvegicus, UniProt Q05941); experiment: Antagonist activity at rat alpha7 nACh receptor expressed in Xenopus oocyte assessed as inhibition of acetylcholine-induced response at -70 mV holding potential by voltage-clamp based electrophysiological assay; format: cell-based
[4] = target: Neuronal acetylcholine receptor; alpha9/alpha10 (Homo sapiens, UniProt Q9GZZ6+Q9UGM1); experiment: Antagonist activity at human alpha9alpha10 nACh receptor expressed in Xenopus oocyte assessed as inhibition of acetylcholine-induced response at -70 mV holding potential by voltage-clamp based electrophysiological assay; format: cell-based
[5] = target: T1, Neuronal acetylcholine receptor; alpha9/alpha10 (Homo sapiens) (UniProt Q9UGM1+Q9GZZ6); experiment: Antagonist activity at human alpha9alpha10 nACh receptor expressed in Xenopus oocyte assessed as inhibition of acetylcholine-induced response at -70 mV holding potential by measuring leftward shit in concentration response curve at 10 nM by voltage-clamp based electrophysiological assay; format: cell-based; settings: filed as antagonist
[6] = target: Nicotinic acetylcholine receptor alpha6/alpha3/beta4 (Rattus norvegicus, UniProt P04757+P12392+P43143); experiment: Antagonist activity at rat alpha6/alpha3beta4 nACh receptor expressed in Xenopus oocyte assessed as inhibition of acetylcholine-induced response at -70 mV holding potential by voltage-clamp based electrophysiological assay; format: cell-based
[7] = target: Nicotinic acetylcholine receptor alpha9/alpha10 (Rattus norvegicus) (UniProt P43144+Q9JLB5); experiment: Antagonist activity at rat alpha9alpha10 nACh receptor expressed in Xenopus oocyte assessed as inhibition of acetylcholine-induced response at -70 mV holding potential by measuring recovery at 10 nM after 5 mins by voltage-clamp based electrophysiological assay relative to control; format: cell-based; settings: filed as antagonist
[8] = target: Neuronal acetylcholine receptor; alpha4/beta2 (Rattus norvegicus, UniProt P09483+P12390); experiment: Antagonist activity at rat alpha4beta2 nACh receptor expressed in Xenopus oocyte assessed as inhibition of acetylcholine-induced response at -70 mV holding potential by voltage-clamp based electrophysiological assay; format: cell-based
[9] = target: Neuronal acetylcholine receptor; alpha3/beta4 (Rattus norvegicus, UniProt P04757+P12392); experiment: Antagonist activity at rat alpha3beta4 nACh receptor expressed in Xenopus oocyte assessed as inhibition of acetylcholine-induced response at -70 mV holding potential by voltage-clamp based electrophysiological assay; format: cell-based
[10] = target: Neuronal acetylcholine receptor; alpha2/beta2 (Rattus norvegicus, UniProt P12389+P12390); experiment: Antagonist activity at rat alpha2beta2 nACh receptor expressed in Xenopus oocyte assessed as inhibition of acetylcholine-induced response at -70 mV holding potential by voltage-clamp based electrophysiological assay; format: cell-based
[11] = target: T1, Neuronal acetylcholine receptor; alpha9/alpha10 (Homo sapiens); experiment: Antagonist activity at human alpha9alpha10 nACh receptor expressed in Xenopus oocyte assessed as inhibition of acetylcholine-induced response at -70 mV holding potential by measuring current response at 10 nM by voltage-clamp based electrophysiological assay; format: cell-based; settings: filed as antagonist
[12] = target: Neuronal acetylcholine receptor; alpha2/beta4 (Rattus norvegicus, UniProt P12389+P12392); experiment: Antagonist activity at rat alpha2beta4 nACh receptor expressed in Xenopus oocyte assessed as inhibition of acetylcholine-induced response at -70 mV holding potential by voltage-clamp based electrophysiological assay; format: cell-based
[13] = target: Neuronal acetylcholine receptor; alpha3/beta2 (Rattus norvegicus, UniProt P04757+P12390); experiment: Antagonist activity at rat alpha3beta2 nACh receptor expressed in Xenopus oocyte assessed as inhibition of acetylcholine-induced response at -70 mV holding potential by voltage-clamp based electrophysiological assay; format: cell-based
[14] = target: Neuronal acetylcholine receptor; alpha4/beta4 (Rattus norvegicus, UniProt P09483+P12392); experiment: Antagonist activity at rat alpha4beta4 nACh receptor expressed in Xenopus oocyte assessed as inhibition of acetylcholine-induced response at -70 mV holding potential by voltage-clamp based electrophysiological assay; format: cell-based
[15] = Selectivity ratio of IC50 for human alpha9alpha10 nACh receptor to IC50 for rat alpha9alpha10 nACh receptor

Chain of Neuronal acetylcholine receptor subunit alpha-7 (Q05941 whole entry): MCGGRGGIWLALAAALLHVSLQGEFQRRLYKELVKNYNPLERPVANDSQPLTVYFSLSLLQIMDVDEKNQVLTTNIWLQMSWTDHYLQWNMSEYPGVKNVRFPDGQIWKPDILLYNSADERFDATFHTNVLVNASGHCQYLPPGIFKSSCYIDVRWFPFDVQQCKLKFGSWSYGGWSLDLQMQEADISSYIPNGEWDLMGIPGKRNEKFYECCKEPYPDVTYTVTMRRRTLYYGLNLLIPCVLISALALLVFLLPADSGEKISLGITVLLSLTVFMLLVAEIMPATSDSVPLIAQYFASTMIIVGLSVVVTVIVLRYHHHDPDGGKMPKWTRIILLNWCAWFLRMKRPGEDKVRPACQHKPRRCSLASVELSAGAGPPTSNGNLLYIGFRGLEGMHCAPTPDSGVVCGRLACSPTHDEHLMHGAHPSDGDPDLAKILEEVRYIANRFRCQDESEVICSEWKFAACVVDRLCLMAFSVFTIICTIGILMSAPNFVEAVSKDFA
Chain of Nicotinic acetylcholine receptor alpha9/alpha10 (P43144 whole entry): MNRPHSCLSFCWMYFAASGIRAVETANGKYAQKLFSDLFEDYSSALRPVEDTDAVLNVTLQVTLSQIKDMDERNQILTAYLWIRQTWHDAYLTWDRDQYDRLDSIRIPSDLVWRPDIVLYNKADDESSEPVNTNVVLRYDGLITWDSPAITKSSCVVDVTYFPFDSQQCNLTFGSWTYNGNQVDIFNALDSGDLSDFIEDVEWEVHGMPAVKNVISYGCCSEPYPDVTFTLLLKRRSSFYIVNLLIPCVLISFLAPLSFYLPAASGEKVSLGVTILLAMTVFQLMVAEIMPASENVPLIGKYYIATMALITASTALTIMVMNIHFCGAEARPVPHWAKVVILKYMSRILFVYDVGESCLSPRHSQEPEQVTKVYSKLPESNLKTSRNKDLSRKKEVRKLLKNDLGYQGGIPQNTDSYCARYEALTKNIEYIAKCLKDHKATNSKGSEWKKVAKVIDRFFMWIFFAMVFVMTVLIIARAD
Chain of Nicotinic acetylcholine receptor alpha9/alpha10 (Q9JLB5 whole entry): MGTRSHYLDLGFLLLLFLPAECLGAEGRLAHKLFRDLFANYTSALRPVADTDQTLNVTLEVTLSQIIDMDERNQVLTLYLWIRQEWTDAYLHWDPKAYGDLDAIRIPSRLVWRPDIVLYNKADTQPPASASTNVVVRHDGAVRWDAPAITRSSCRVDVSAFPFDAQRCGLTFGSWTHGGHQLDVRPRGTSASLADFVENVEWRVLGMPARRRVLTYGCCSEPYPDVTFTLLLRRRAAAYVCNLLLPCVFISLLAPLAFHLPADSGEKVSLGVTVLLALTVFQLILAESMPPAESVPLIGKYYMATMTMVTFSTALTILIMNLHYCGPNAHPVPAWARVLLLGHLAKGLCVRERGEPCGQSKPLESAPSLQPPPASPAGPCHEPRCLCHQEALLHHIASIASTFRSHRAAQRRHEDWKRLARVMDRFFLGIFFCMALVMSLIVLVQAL
Chain of Neuronal acetylcholine receptor; alpha9/alpha10 (Q9UGM1 whole entry): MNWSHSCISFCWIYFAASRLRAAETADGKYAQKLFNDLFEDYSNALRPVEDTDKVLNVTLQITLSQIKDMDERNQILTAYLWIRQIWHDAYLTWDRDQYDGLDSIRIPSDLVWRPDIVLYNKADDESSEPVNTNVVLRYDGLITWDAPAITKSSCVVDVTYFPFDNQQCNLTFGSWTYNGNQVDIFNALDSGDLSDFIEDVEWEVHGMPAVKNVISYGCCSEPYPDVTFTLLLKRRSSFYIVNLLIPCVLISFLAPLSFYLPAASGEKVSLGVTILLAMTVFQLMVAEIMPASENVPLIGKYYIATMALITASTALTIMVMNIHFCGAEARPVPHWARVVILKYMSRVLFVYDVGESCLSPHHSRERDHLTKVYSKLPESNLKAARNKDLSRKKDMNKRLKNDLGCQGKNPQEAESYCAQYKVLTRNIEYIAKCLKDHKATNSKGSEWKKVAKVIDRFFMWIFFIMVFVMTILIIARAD
Chain of Neuronal acetylcholine receptor; alpha9/alpha10 (Q9GZZ6 whole entry): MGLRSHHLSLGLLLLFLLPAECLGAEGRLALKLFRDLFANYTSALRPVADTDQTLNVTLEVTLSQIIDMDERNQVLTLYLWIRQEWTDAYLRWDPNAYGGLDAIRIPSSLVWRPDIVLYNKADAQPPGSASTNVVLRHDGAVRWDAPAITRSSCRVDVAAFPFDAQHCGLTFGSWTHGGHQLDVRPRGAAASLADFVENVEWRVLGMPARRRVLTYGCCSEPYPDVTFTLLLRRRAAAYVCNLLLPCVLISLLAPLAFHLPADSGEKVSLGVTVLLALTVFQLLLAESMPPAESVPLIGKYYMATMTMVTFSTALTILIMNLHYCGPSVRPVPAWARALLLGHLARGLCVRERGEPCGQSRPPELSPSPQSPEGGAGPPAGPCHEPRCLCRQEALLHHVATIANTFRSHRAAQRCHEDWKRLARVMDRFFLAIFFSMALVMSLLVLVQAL
Chain of Neuronal acetylcholine receptor; alpha4/beta4 (P09483 whole entry): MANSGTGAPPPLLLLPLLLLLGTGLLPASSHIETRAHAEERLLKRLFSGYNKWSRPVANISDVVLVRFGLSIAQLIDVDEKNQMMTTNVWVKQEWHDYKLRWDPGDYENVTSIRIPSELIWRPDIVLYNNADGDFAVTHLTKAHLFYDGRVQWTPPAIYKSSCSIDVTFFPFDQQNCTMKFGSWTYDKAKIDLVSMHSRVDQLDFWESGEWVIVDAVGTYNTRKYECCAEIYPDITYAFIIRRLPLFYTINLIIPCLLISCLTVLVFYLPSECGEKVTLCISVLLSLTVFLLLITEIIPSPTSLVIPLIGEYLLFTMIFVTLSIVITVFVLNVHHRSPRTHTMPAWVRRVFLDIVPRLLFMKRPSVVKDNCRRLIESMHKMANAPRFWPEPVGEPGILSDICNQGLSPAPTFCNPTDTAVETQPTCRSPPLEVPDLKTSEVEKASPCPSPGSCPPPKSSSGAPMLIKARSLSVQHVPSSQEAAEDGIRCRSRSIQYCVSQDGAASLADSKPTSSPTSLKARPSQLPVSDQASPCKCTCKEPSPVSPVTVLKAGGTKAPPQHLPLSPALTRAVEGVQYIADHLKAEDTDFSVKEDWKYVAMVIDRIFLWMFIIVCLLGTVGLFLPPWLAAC
Chain of Neuronal acetylcholine receptor; alpha4/beta4 (P12392 whole entry): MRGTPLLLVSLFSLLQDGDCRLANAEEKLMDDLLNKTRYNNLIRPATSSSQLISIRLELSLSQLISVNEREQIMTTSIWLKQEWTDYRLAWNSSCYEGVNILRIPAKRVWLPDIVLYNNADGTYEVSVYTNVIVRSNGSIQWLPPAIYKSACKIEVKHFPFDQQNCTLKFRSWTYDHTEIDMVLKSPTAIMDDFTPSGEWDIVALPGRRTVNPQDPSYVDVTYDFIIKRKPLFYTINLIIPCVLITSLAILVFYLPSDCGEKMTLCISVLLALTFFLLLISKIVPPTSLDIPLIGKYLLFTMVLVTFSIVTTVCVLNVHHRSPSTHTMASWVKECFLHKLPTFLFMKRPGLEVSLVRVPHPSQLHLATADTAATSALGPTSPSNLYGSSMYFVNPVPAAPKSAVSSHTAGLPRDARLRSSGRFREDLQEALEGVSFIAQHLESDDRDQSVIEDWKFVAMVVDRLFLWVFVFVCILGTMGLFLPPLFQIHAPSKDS
Chain of Neuronal acetylcholine receptor; alpha4/beta2 (P09483 whole entry): as the sequence (P09483 whole entry) above
Chain of Neuronal acetylcholine receptor; alpha4/beta2 (P12390 whole entry): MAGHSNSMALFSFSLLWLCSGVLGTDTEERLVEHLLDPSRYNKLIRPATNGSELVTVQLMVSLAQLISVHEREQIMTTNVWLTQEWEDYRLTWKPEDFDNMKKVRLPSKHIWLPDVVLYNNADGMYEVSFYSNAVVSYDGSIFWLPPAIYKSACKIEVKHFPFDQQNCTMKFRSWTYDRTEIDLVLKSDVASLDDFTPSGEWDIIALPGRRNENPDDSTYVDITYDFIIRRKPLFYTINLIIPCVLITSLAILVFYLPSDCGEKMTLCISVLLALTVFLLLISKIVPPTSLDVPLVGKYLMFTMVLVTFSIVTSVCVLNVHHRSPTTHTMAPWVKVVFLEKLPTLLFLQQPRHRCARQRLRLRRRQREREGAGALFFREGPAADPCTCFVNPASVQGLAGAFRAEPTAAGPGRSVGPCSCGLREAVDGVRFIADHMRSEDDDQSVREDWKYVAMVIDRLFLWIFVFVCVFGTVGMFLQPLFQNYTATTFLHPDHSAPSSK
Chain of Neuronal acetylcholine receptor; alpha3/beta2 (P04757 whole entry): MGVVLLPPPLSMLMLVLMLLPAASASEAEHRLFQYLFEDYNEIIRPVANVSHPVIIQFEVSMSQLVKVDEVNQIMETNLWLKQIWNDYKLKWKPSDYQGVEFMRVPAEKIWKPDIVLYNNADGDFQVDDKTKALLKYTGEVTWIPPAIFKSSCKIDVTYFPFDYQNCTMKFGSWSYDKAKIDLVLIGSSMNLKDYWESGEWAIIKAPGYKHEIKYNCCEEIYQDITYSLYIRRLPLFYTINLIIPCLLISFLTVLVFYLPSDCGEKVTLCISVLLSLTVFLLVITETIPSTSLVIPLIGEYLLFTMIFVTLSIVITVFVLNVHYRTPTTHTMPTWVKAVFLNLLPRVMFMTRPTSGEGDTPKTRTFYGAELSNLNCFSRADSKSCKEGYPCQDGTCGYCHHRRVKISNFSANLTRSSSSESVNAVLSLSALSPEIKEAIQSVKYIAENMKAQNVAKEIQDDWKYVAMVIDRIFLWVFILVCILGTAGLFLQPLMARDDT
Chain of Neuronal acetylcholine receptor; alpha3/beta2 (P12390 whole entry): as the sequence (P12390 whole entry) above
Chain of Neuronal acetylcholine receptor; alpha3/beta4 (P04757 whole entry): as the sequence (P04757 whole entry) above
Chain of Neuronal acetylcholine receptor; alpha3/beta4 (P12392 whole entry): as the sequence (P12392 whole entry) above

CC[C@H](C)[C@@H]1NC(=O)[C@H](CCCNC(=N)N)NC(=O)[C@H](CCCNC(=N)N)NC(=O)[C@@H](NC(=O)[C@H](Cc2ccc(O)cc2)NC(=O)[C@H](CCCNC(=N)N)NC(=O)[C@H](C)NC(=O)[C@H](CCCNC(=N)N)NC(=O)[C@H](CCCNC(=N)N)NC(=O)[C@H](CC(=O)O)NC(=O)[C@H](Cc2ccc(O)cc2)NC(=O)[C@@H]2CCCN2C(=O)[C@H](CO)NC(=O)[C@H](CCCNC(=N)N)NC(=O)[C@@H]2CSSC[C@H](NC(=O)[C@@H](N)[C@@H](C)O)C(=O)N[C@@H](CCCNC(=N)N)C(=O)N[C@@H](CO)C(=O)N[C@@H](CO)C(=O)NCC(=O)N[C@@H](CCCNC(=N)N)C(=O)N[C@@H](Cc3ccc(O)cc3)C(=O)N2)CSSC[C@@H](C(=O)N[C@H](C(=O)O)C(C)C)NC(=O)[C@H](C)NC(=O)[C@H](CC(=O)O)NC(=O)[C@H]([C@@H](C)O)NC1=O
IC50 [1]: 0.027 µM | Stability [2]: Stable | IC50 [3]: 4.48 µM

CC(C)[C@H](NC(=O)[C@@H]1CSSC[C@H](NC(=O)[C@@H](N)[C@@H](C)O)C(=O)N[C@@H](CCCNC(=N)N)C(=O)N[C@@H](CO)C(=O)N[C@@H](CO)C(=O)NCC(=O)N[C@@H](CCCNC(=N)N)C(=O)N[C@@H](Cc2ccc(O)cc2)C(=O)N[C@H]2CSSC[C@H](NC(=O)[C@H](Cc3ccc(O)cc3)NC(=O)[C@H](CCCNC(=N)N)NC(=O)[C@H](CCCNC(=N)N)NC(=O)[C@H](CCCNC(=N)N)NC(=O)[C@H](CCCNC(=N)N)NC(=O)[C@H](CC(=O)O)NC(=O)[C@H](Cc3ccc(O)cc3)NC(=O)[C@@H]3CCCN3C(=O)[C@H](CO)NC(=O)[C@H](CCCNC(=N)N)NC2=O)C(=O)N[C@@H](CCCNC(=N)N)C(=O)N[C@@H](CCCNC(=N)N)C(=O)N[C@@H](C)C(=O)N[C@@H]([C@@H](C)O)C(=O)N[C@@H](CC(=O)O)C(=O)N[C@@H](C)C(=O)N1)C(=O)O
IC50 [4]: 0.011 µM | inhibition [5]: Active | IC50 [6]: 4.01 µM | Activity [7]: Active | IC50 [8]: 3.15 µM | IC50 [9]: 6.03 µM | IC50 [10]: 2.99 µM | inhibition [11]: 60% | IC50 [12]: 3.65 µM | IC50 [1]: 0.0014 µM | IC50 [13]: 1.46 µM | Stability [2]: Stable | IC50 [14]: 8.24 µM | IC50 [3]: 1.36 µM

CC[C@H](C)[C@H](NC(=O)[C@H](CCC(=O)O)NC(=O)[C@@H]1CCCN1C(=O)[C@H](Cc1cnc[nH]1)NC(=O)[C@H](CC(=O)O)NC(=O)[C@H](Cc1ccc(O)cc1)NC(=O)[C@H](CC(N)=O)NC(=O)[C@H](CS)NC(=O)[C@H](CCCNC(=N)N)NC(=O)[C@@H]1CCCN1C(=O)[C@H](CC(=O)O)NC(=O)[C@H](CO)NC(=O)[C@H](CS)NC(=O)[C@H](CS)NC(=O)CN)C(=O)N[C@@H](CS)C(N)=O
IC50 [4]: 0.32 µM | Ratio IC50 [15]: 4.6 | IC50 [1]: 0.07 µM

CC(C)C[C@H](NC(=O)[C@H](CCC(=O)O)NC(=O)[C@@H]1CCCN1C(=O)[C@H](Cc1cnc[nH]1)NC(=O)[C@H](CC(N)=O)NC(=O)[C@@H](NC(=O)[C@H](CO)NC(=O)[C@H](CS)NC(=O)[C@H](C)NC(=O)[C@@H]1CCCN1C(=O)[C@H](Cc1cnc[nH]1)NC(=O)[C@H](CO)NC(=O)[C@H](CS)NC(=O)[C@H](CS)NC(=O)CN)C(C)C)C(=O)N[C@@H](CS)C(N)=O (H-GCCSHPACSVNHPELC-NH2)
IC50 [4]: 0.0222 µM | Ratio IC50 [15]: 3.2 | IC50 [1]: 0.0069 µM

N=C(N)NCCC[C@H](NC(=O)[C@H](CS)NC(=O)[C@H](CCCNC(=N)N)NC(=O)[C@H](Cc1ccc(O)cc1)NC(=O)[C@H](CCCNC(=N)N)NC(=O)[C@H](CS)NC(=O)[C@H](CCCNC(=N)N)NC(=O)[C@@H]1CCCN1C(=O)[C@H](CC(=O)O)NC(=O)[C@H](CO)NC(=O)[C@H](CS)NC(=O)[C@H](CS)NC(=O)CN)C(=O)O
IC50 [4]: 0.494 µM | Ratio IC50 [15]: 329 | IC50 [1]: 0.0015 µM

C[C@@H](O)[C@H](NC(=O)[C@H](CS)NC(=O)[C@H](CS)NC(=O)CN)C(=O)N[C@@H](CC(=O)O)C(=O)N1CCC[C@H]1C(=O)N[C@@H](CCCNC(=N)N)C(=O)N[C@@H](CS)C(=O)N[C@@H](CCCNC(=N)N)C(=O)N[C@@H](Cc1ccc(O)c(I)c1)C(=O)N[C@@H](CCC(N)=O)C(=O)N[C@@H](CS)C(=O)N[C@@H](Cc1ccc(O)cc1)C(=O)O
IC50 [4]: 0.0015 µM | Ratio IC50 [15]: 1.7 | IC50 [1]: 0.0009 µM

CC[C@H](C)[C@@H]1NC(=O)[C@H](CCCNC(=N)N)NC(=O)[C@H](CCCNC(=N)N)NC(=O)[C@@H](NC(=O)[C@H](Cc2ccc(O)cc2)NC(=O)[C@H](CCCNC(=N)N)NC(=O)[C@H](CCCNC(=N)N)NC(=O)[C@H](CCCNC(=N)N)NC(=O)[C@H](CCCNC(=N)N)NC(=O)[C@H](CC(=O)O)NC(=O)[C@H](Cc2ccc(O)cc2)NC(=O)[C@@H]2CCCN2C(=O)[C@H](CO)NC(=O)[C@H](CCCNC(=N)N)NC(=O)[C@@H]2CSSC[C@H](NC(=O)[C@@H](N)[C@@H](C)O)C(=O)N[C@@H](CCCNC(=N)N)C(=O)N[C@@H](CO)C(=O)N[C@@H](CO)C(=O)NCC(=O)N[C@@H](CCCNC(=N)N)C(=O)N[C@@H](C)C(=O)N2)CSSC[C@@H](C(=O)N[C@H](C(=O)O)C(C)C)NC(=O)[C@H](C)NC(=O)[C@H](CC(=O)O)NC(=O)[C@H]([C@@H](C)O)NC1=O (HELM PEPTIDE1{T.C.R.S.S.G.R.A.C.R.S.P.Y.D.R.R.R.R.Y.C.R.R.I.T.D.A.C.V}$PEPTIDE1,PEPTIDE1,2:R3-9:R3|PEPTIDE1,PEPTIDE1,20:R3-27:R3$$$V2.0)
IC50 [1]: 0.01 µM | IC50 [3]: 1.7 µM

CC[C@H](C)[C@@H]1NC(=O)[C@H](CCCNC(=N)N)NC(=O)[C@H](CCCNC(=N)N)NC(=O)[C@@H]2CSSC[C@H](NC(=O)[C@H](Cc3ccc(O)cc3)NC(=O)[C@H](CCCNC(=N)N)NC(=O)CNC(=O)[C@H](CO)NC(=O)[C@H](CO)NC(=O)[C@H](CCCNC(=N)N)NC(=O)[C@@H](NC(=O)[C@@H](N)[C@@H](C)O)CSSC[C@@H](C(=O)N[C@H](C(=O)O)C(C)C)NC(=O)[C@H](C)NC(=O)[C@H](CC(=O)O)NC(=O)[C@H]([C@@H](C)O)NC1=O)C(=O)N[C@@H](CCCNC(=N)N)C(=O)N[C@@H](C)C(=O)N1CCC[C@H]1C(=O)N[C@@H](Cc1ccc(O)cc1)C(=O)N[C@@H](CC(=O)O)C(=O)N[C@@H](CCCNC(=N)N)C(=O)N[C@@H](CCCNC(=N)N)C(=O)N[C@@H](CCCNC(=N)N)C(=O)N[C@@H](CCCNC(=N)N)C(=O)N[C@@H](Cc1ccc(O)cc1)C(=O)N2 (HELM PEPTIDE1{T.C.R.S.S.G.R.Y.C.R.A.P.Y.D.R.R.R.R.Y.C.R.R.I.T.D.A.C.V}$PEPTIDE1,PEPTIDE1,2:R3-27:R3|PEPTIDE1,PEPTIDE1,9:R3-20:R3$$$V2.0)
IC50 [1]: 0.01 µM | IC50 [3]: 5.6 µM
